For 42 compounds, Kd, Activity and MIC results are on record in ChEMBL document CHEMBL4138233, “Purine analogs targeting the guanine riboswitch as potential antibiotics against Clostridioides difficile” (Eur J Med Chem, 2018).

Assay [1] can be described thus: Binding affinity to Clostridium difficile [5'-32P]guaA riboswitch by polyacrylamide gel electrophoresis method. Also noted: species or system Clostridioides difficile.
The test system of assay [2] is Clostridioides difficile. Nature of the assay: Antibacterial activity against Clostridium difficile ATCC 700057 up to 5000 ug/ml by broth microdilution method. Type of assay: functional, organism-based. (In general: Dilution methods test growth across graded concentrations, often in twofold steps.)
Assay [3] concerns Clostridioides difficile. Nature of the assay: Antibacterial activity against Clostridium difficile ATCC 700057 by broth microdilution method. Type of assay: functional.
A short description of assay [4]: Binding affinity to Staphylococcus aureus [5'-32P]guaA riboswitch by polyacrylamide gel electrophoresis method.
Assay [5] can be described thus: Binding affinity to Bacillus subtilis guaA riboswitch.

Converted amounts (≈) assume the structure as drawn. The source made the active and inactive calls. No cut-off for these calls is given here.

As usually defined, the Kd is the concentration at which binding is half-saturated. One may read the MIC as the lowest concentration found to suppress growth. Read a low MIC as greater potency.

Compound `CCC(=O)Nc1nc2[nH]cnc2c(=O)[nH]1` gave a Kd in assay [1] of 0.56 µM. Moreover, the outcome in the assay with Clostridioides difficile [2] was inactive.

Compound `Nc1nc(NCc2ccccc2)c2[nH]cnc2n1` yielded a Kd in assay [1] of 0.93 µM. The outcome in the assay with Clostridioides difficile [2] was inactive.

The compound `O=c1[nH]c(NCCc2ccc(O)cc2)nc2[nH]cnc12` came in with a Kd in assay [1] of over 1000 µM. The compound also came in with an MIC in the assay on Clostridioides difficile [3] of 1250 µg/mL (≈ 4.61 mM).

In the case of `NC(=O)Nc1nc2[nH]cnc2c(=O)[nH]1`, the Kd in assay [1] turned out to be 21 µM. Besides, the outcome with Clostridioides difficile [2] was inactive.

`CCCCNc1nc(O)c2[nH]cnc2n1` returned a Kd in assay [1] of 4 µM. The compound also had an MIC against Clostridioides difficile [3] of 625 µg/mL (≈ 3.02 mM).

In assay [1], `Nc1nc2snnc2c(=O)[nH]1` returned a Kd of over 1000 µM. In the assay on Clostridioides difficile [3], this compound showed an MIC of 156 µg/mL (≈ 0.922 mM).

For the compound `CC(=O)Nc1nc(=O)c2[nH]cnc2[nH]1`, the Kd in assay [1] was determined as 1.05 µM. The outcome with Clostridioides difficile [2] was inactive.

In assay [1], `CN(C)CCNC(=O)Nc1nc2[nH]cnc2c(=O)[nH]1` displayed a Kd of 2.06 µM. Further, the outcome in the assay with Clostridioides difficile [2] was inactive.

The compound `Nc1nc(N)c(N)c(=O)[nH]1` displayed a Kd in assay [4] of 0.1 µM. This lies in the sub-micromolar range.

Turning to `Nc1nc(NCCCO)c2nc[nH]c2n1`, the Kd in assay [1] came out at 0.63 µM. Besides, in the assay on Clostridioides difficile [2], the result was inactive.

In turn, `O=C(NCCN1CCOCC1)Nc1nc2[nH]cnc2c(=O)[nH]1` registered a Kd in assay [1] of 27.6 µM. The same compound registered an MIC in the assay with Clostridioides difficile [3] of 1250 µg/mL (≈ 4.07 mM).

`NCCNc1nc(N)nc2[nH]cnc12` registered a Kd in assay [1] of over 1000 µM. For the same compound, in the assay with Clostridioides difficile [2], the result was inactive.

`Nc1nc2nsnc2c(=O)[nH]1`: the Kd in assay [1] was over 1000 µM. Further, in the assay on Clostridioides difficile [2], the outcome was inactive.

For `O=c1[nH]c(NCCc2c[nH]cn2)nc2[nH]cnc12`, the Kd in assay [1] is 300 µM. The MIC against Clostridioides difficile [3] amounted to 1250 µg/mL (≈ 5.1 mM).

With `O=C(Nc1nc2[nH]cnc2c(=O)[nH]1)N1CCCCC1`, in assay [1], binding was characterised by a dissociation constant (Kd) of 29.4 µM. Besides, the result with Clostridioides difficile [2] was inactive.

Consider `Nc1nc(NC2CCC2)c2nc[nH]c2n1`, for which the Kd in assay [1] is over 1000 µM. This compound also returned an MIC with Clostridioides difficile [3] of 1250 µg/mL (≈ 6.12 mM).

`CNc1nc2[nH]cnc2c(=O)[nH]1` returned a Kd in assay [1] of over 1000 µM. For the same compound, the outcome in the assay with Clostridioides difficile [2] was inactive.

For the compound `Nc1nc2scnc2c(=O)[nH]1`, in assay [1], the Kd was found to be 7.4 µM. For the same compound, the outcome in the assay on Clostridioides difficile [2] was inactive.

With `CN(C)c1nc(N)nc2[nH]cnc12`, the Kd in assay [1] turned out to be 48.3 µM. Besides, the outcome in the assay with Clostridioides difficile [2] was inactive.

The compound `Nc1nc2nnccc2c(=O)[nH]1` returned a Kd in assay [1] of over 1000 µM. Besides, the result with Clostridioides difficile [2] was inactive.

`O=C(O)CCCC(=O)Nc1nc2[nH]cnc2c(=O)[nH]1` displayed a Kd in assay [1] of 0.45 µM. The result in the assay with Clostridioides difficile [2] was inactive.

For the compound `CCCCNc1nc(N)nc2[nH]cnc12`, in assay [1], the Kd was 12.3 µM. Besides, the MIC in the assay with Clostridioides difficile [3] came to 313 µg/mL (≈ 1.52 mM).

In turn, `Nc1nc(NC2CC2)c2nc[nH]c2n1` returned a Kd in assay [1] of 25 µM. The same compound returned an MIC in the assay on Clostridioides difficile [3] of 1250 µg/mL (≈ 6.57 mM).

In the case of `O=C(Nc1nc2[nH]cnc2c(=O)[nH]1)N1CCOCC1`, the Kd in assay [1] came out at 1.81 µM. In the assay with Clostridioides difficile [2], the result was inactive.

`CN(C)C(=O)Nc1nc2[nH]cnc2c(=O)[nH]1`: in assay [1], the Kd was determined as 16.4 µM. This compound returned an MIC in the assay with Clostridioides difficile [3] of 1250 µg/mL (≈ 5.63 mM).

With `Nc1nc(NCc2ccc(F)cc2)c2nc[nH]c2n1`, in assay [1], the Kd came to 25.2 µM. This compound had an MIC against Clostridioides difficile [3] of 313 µg/mL (≈ 1.21 mM).

In assay [1], `CNC(=O)Nc1nc2[nH]cnc2c(=O)[nH]1` gave a Kd of over 1000 µM. For the same compound, the outcome in the assay with Clostridioides difficile [2] was inactive.

The compound `O=c1[nH]c(NC2CCC2)nc2[nH]cnc12` displayed a Kd in assay [1] of 2.4 µM. The compound also returned an MIC in the assay on Clostridioides difficile [3] of 1250 µg/mL (≈ 6.09 mM).

In turn, `COCCCNc1nc2[nH]cnc2c(=O)[nH]1` yielded a Kd in assay [1] of 2.2 µM. Further, in the assay on Clostridioides difficile [2], the outcome was inactive.

In assay [1], `O=c1[nH]c(NC2CCCCC2)nc2[nH]cnc12` registered a Kd of 6.5 µM. The compound also yielded an MIC in the assay on Clostridioides difficile [3] of 78 µg/mL (≈ 0.334 mM).

For the compound `Nc1nc2ncsc2c(=O)[nH]1`, the dissociation constant Kd in assay [1] was over 1000 µM. The compound further showed an MIC in the assay on Clostridioides difficile [3] of 78 µg/mL (≈ 0.464 mM).

In turn, `COc1ccc(CNc2nc(N)nc3[nH]cnc23)cc1` gave a Kd in assay [1] of 71.3 µM. For the same compound, the MIC against Clostridioides difficile [3] came to 313 µg/mL (≈ 1.16 mM).

For the compound `Nc1nc(NCC2CC2)c2nc[nH]c2n1`, binding in assay [1] was characterised by a dissociation constant (Kd) of 68.9 µM. The MIC with Clostridioides difficile [3] is 312 µg/mL (≈ 1.53 mM).

In assay [1], `Nc1nc(O)c2ncn(Cc3ccccc3)c2n1` had a Kd of over 1000 µM. Further, the result with Clostridioides difficile [2] was inactive.

Turning to `CCCNc1nc(N)nc2[nH]cnc12`, in assay [1], the Kd was 68.3 µM. In the assay on Clostridioides difficile [3], it took 625 µg/mL (≈ 3.25 mM) to inhibit growth (MIC).

Regarding `Nc1nc2[nH]cnc2c(=O)[nH]1` [GUANINE], the Kd in assay [1] was 0.002 µM; in assay [5], 0.005 µM.

In assay [1], `Cn1cnc2c(O)nc(N)nc21` [9-Methylguanine] returned a Kd of 8.1 µM. The outcome in the assay on Clostridioides difficile [2] was inactive.

`O=c1[nH]c(NCc2ccccn2)nc2[nH]cnc12` yielded a Kd in assay [1] of 24.4 µM. Besides, in the assay with Clostridioides difficile [2], the result was inactive.

`Nc1nc(NCc2cccnc2)c2nc[nH]c2n1` had a Kd in assay [1] of over 1000 µM. Further, in the assay with Clostridioides difficile [3], the lowest concentration to inhibit growth (MIC) was 625 µg/mL (≈ 2.59 mM).

As to `O=C(NCCO)Nc1nc2[nH]cnc2c(=O)[nH]1`, binding in assay [1] was put at a Kd of 2.67 µM. Moreover, the result with Clostridioides difficile [2] was inactive.

As for `O=c1[nH]c(NCCCO)nc2[nH]cnc12`, in assay [1], binding was characterised by a dissociation constant (Kd) of 9.8 µM. The result with Clostridioides difficile [2] was inactive.

`NCCCNc1nc(N)nc2[nH]cnc12` registered a Kd in assay [1] of 0.32 µM. Further, in the assay on Clostridioides difficile [2], the result was inactive.
